Columns and labels:
Experiment in all cases: relative viability (nuclei count vs DMSO), 5 days (fraction); higher = more cells survive
Palbociclib + Olaparib = compound: CC(=O)c1c(C)c2cnc(Nc3ccc(N4CCNCC4)cn3)nc2n(C2CCCC2)c1=O [Palbociclib] + O=C(c1cc(Cc2n[nH]c(=O)c3ccccc23)ccc1F)N1CCN(C(=O)C2CC2)CC1 [Olaparib] (partner 8 µM)
Method in brief: (§1)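 Nuclei were stained with Hoechst during a one-step fixation (final 0.05% Triton X-100, 1% formaldehyde, 1 ug/ml Hoechst) carried out 5 days after dosing, then counted on 4× images. The cells, lung cancer lines in 1536-well plates, had been dosed by pin tool the day after seeding with one drug alone or a fixed anchor-drug dose plus five library-drug doses (not always all listed) in √10 steps. Relative viability is the nuclei count in treated wells divided by that in vehicle wells, and each value is the median of duplicate plates.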

Palbociclib + Vorinostat = compound: CC(=O)c1c(C)c2cnc(Nc3ccc(N4CCNCC4)cn3)nc2n(C2CCCC2)c1=O [Palbociclib] + O=C(CCCCCCC(=O)Nc1ccccc1)NO [Vorinostat] (partner 1 µM)
Method in brief: as §1

Palbociclib + Tozasertib = compound: CC(=O)c1c(C)c2cnc(Nc3ccc(N4CCNCC4)cn3)nc2n(C2CCCC2)c1=O [Palbociclib] + Cc1cc(Nc2cc(N3CCN(C)CC3)nc(Sc3ccc(NC(=O)C4CC4)cc3)n2)n[nH]1 [Tozasertib] (partner 0.1 µM)
Method in brief: as §1

Palbociclib + Trametinib = compound: CC(=O)c1c(C)c2cnc(Nc3ccc(N4CCNCC4)cn3)nc2n(C2CCCC2)c1=O [Palbociclib] + CC(=O)Nc1cccc(-n2c(=O)n(C3CC3)c(=O)c3c(Nc4ccc(I)cc4F)n(C)c(=O)c(C)c32)c1 [Trametinib] (partner 0.02 µM)
Method in brief: as §1

SW 1573
relative viability (Palbociclib + Olaparib; first compound 0.01 µM): 0.463 | relative viability (Palbociclib + Olaparib; first compound 0.03162 µM): 0.452 | relative viability (Palbociclib + Olaparib; first compound 0.1 µM): 0.454 | relative viability (Palbociclib + Olaparib; first compound 0.3162 µM): 0.359 | relative viability (Palbociclib + Olaparib; first compound 1 µM): 0.291 | relative viability (Palbociclib + Vorinostat; first compound 0.01 µM): 0.752 | relative viability (Palbociclib + Vorinostat; first compound 0.03162 µM): 0.251 | relative viability (Palbociclib + Vorinostat; first compound 0.1 µM): 0.51 | relative viability (Palbociclib + Vorinostat; first compound 0.3162 µM): 0.673 | relative viability (Palbociclib + Vorinostat; first compound 1 µM): 0.546 | relative viability (Palbociclib + Tozasertib; first compound 0.01 µM): 0.151 | relative viability (Palbociclib + Tozasertib; first compound 0.03162 µM): 0.185 | relative viability (Palbociclib + Tozasertib; first compound 0.1 µM): 0.167 | relative viability (Palbociclib + Tozasertib; first compound 0.3162 µM): 0.148 | relative viability (Palbociclib + Tozasertib; first compound 1 µM): 0.163 | relative viability (Palbociclib + Trametinib; first compound 0.01 µM): 0.6 | relative viability (Palbociclib + Trametinib; first compound 0.03162 µM): 0.432 | relative viability (Palbociclib + Trametinib; first compound 0.1 µM): 0.515 | relative viability (Palbociclib + Trametinib; first compound 0.3162 µM): 0.42 | relative viability (Palbociclib + Trametinib; first compound 1 µM): 0.366

NCI-H520
relative viability (Palbociclib + Olaparib; first compound 0.01 µM): 0.289 | relative viability (Palbociclib + Olaparib; first compound 0.03162 µM): 0.35 | relative viability (Palbociclib + Olaparib; first compound 0.1 µM): 0.255 | relative viability (Palbociclib + Olaparib; first compound 0.3162 µM): 0.199 | relative viability (Palbociclib + Olaparib; first compound 1 µM): 0.173 | relative viability (Palbociclib + Vorinostat; first compound 0.01 µM): 0.728 | relative viability (Palbociclib + Vorinostat; first compound 0.03162 µM): 0.57 | relative viability (Palbociclib + Vorinostat; first compound 0.1 µM): 0.565 | relative viability (Palbociclib + Vorinostat; first compound 0.3162 µM): 0.47 | relative viability (Palbociclib + Vorinostat; first compound 1 µM): 0.372 | relative viability (Palbociclib + Tozasertib; first compound 0.01 µM): 0.445 | relative viability (Palbociclib + Tozasertib; first compound 0.03162 µM): 0.424 | relative viability (Palbociclib + Tozasertib; first compound 0.1 µM): 0.238 | relative viability (Palbociclib + Tozasertib; first compound 0.3162 µM): 0.329 | relative viability (Palbociclib + Tozasertib; first compound 1 µM): 0.249 | relative viability (Palbociclib + Trametinib; first compound 0.01 µM): 0.84 | relative viability (Palbociclib + Trametinib; first compound 0.03162 µM): 0.574 | relative viability (Palbociclib + Trametinib; first compound 0.1 µM): 0.561 | relative viability (Palbociclib + Trametinib; first compound 0.3162 µM): 0.541 | relative viability (Palbociclib + Trametinib; first compound 1 µM): 0.245

LU99A
relative viability (Palbociclib + Olaparib; first compound 0.01 µM): 0.24 | relative viability (Palbociclib + Olaparib; first compound 0.1 µM): 0.281 | relative viability (Palbociclib + Olaparib; first compound 0.3162 µM): 0.26 | relative viability (Palbociclib + Olaparib; first compound 1 µM): 0.271 | relative viability (Palbociclib + Vorinostat; first compound 0.01 µM): 0.517 | relative viability (Palbociclib + Vorinostat; first compound 0.1 µM): 0.435 | relative viability (Palbociclib + Vorinostat; first compound 0.3162 µM): 0.587 | relative viability (Palbociclib + Vorinostat; first compound 1 µM): 0.399 | relative viability (Palbociclib + Tozasertib; first compound 0.01 µM): 0.314 | relative viability (Palbociclib + Tozasertib; first compound 0.03162 µM): 0.268 | relative viability (Palbociclib + Tozasertib; first compound 0.1 µM): 0.254 | relative viability (Palbociclib + Tozasertib; first compound 0.3162 µM): 0.308 | relative viability (Palbociclib + Tozasertib; first compound 1 µM): 0.25 | relative viability (Palbociclib + Trametinib; first compound 0.01 µM): 0.557 | relative viability (Palbociclib + Trametinib; first compound 0.1 µM): 0.523 | relative viability (Palbociclib + Trametinib; first compound 0.3162 µM): 0.573 | relative viability (Palbociclib + Trametinib; first compound 1 µM): 0.478

RERF-LC-KJ
relative viability (Palbociclib + Olaparib; first compound 0.01 µM): 0.896 | relative viability (Palbociclib + Olaparib; first compound 0.03162 µM): 0.83 | relative viability (Palbociclib + Olaparib; first compound 0.1 µM): 0.919 | relative viability (Palbociclib + Olaparib; first compound 0.3162 µM): 0.942 | relative viability (Palbociclib + Olaparib; first compound 1 µM): 0.821 | relative viability (Palbociclib + Vorinostat; first compound 0.01 µM): 0.724 | relative viability (Palbociclib + Vorinostat; first compound 0.03162 µM): 0.613 | relative viability (Palbociclib + Vorinostat; first compound 0.1 µM): 0.66 | relative viability (Palbociclib + Vorinostat; first compound 0.3162 µM): 0.747 | relative viability (Palbociclib + Vorinostat; first compound 1 µM): 0.682 | relative viability (Palbociclib + Tozasertib; first compound 0.01 µM): 0.467 | relative viability (Palbociclib + Tozasertib; first compound 0.03162 µM): 0.446 | relative viability (Palbociclib + Tozasertib; first compound 0.1 µM): 0.392 | relative viability (Palbociclib + Tozasertib; first compound 0.3162 µM): 0.536 | relative viability (Palbociclib + Tozasertib; first compound 1 µM): 0.534 | relative viability (Palbociclib + Trametinib; first compound 0.01 µM): 0.793 | relative viability (Palbociclib + Trametinib; first compound 0.03162 µM): 0.771 | relative viability (Palbociclib + Trametinib; first compound 0.1 µM): 0.846 | relative viability (Palbociclib + Trametinib; first compound 0.3162 µM): 0.813 | relative viability (Palbociclib + Trametinib; first compound 1 µM): 0.91

NCI-H596
relative viability (Palbociclib + Olaparib; first compound 0.01 µM): 0.708 | relative viability (Palbociclib + Olaparib; first compound 0.03162 µM): 0.809 | relative viability (Palbociclib + Olaparib; first compound 0.1 µM): 0.724 | relative viability (Palbociclib + Olaparib; first compound 0.3162 µM): 0.707 | relative viability (Palbociclib + Olaparib; first compound 1 µM): 0.68 | relative viability (Palbociclib + Vorinostat; first compound 0.01 µM): 0.656 | relative viability (Palbociclib + Vorinostat; first compound 0.03162 µM): 0.655 | relative viability (Palbociclib + Vorinostat; first compound 0.1 µM): 0.589 | relative viability (Palbociclib + Vorinostat; first compound 0.3162 µM): 0.768 | relative viability (Palbociclib + Vorinostat; first compound 1 µM): 0.57 | relative viability (Palbociclib + Tozasertib; first compound 0.01 µM): 0.951 | relative viability (Palbociclib + Tozasertib; first compound 0.1 µM): 1 | relative viability (Palbociclib + Tozasertib; first compound 0.3162 µM): 0.935 | relative viability (Palbociclib + Tozasertib; first compound 1 µM): 0.965 | relative viability (Palbociclib + Trametinib; first compound 0.01 µM): 0.793 | relative viability (Palbociclib + Trametinib; first compound 0.03162 µM): 0.632 | relative viability (Palbociclib + Trametinib; first compound 0.1 µM): 0.875 | relative viability (Palbociclib + Trametinib; first compound 0.3162 µM): 0.757 | relative viability (Palbociclib + Trametinib; first compound 1 µM): 0.954

SK-LU-1
relative viability (Palbociclib + Olaparib; first compound 0.01 µM): 0.51 | relative viability (Palbociclib + Olaparib; first compound 0.03162 µM): 0.425 | relative viability (Palbociclib + Olaparib; first compound 0.1 µM): 0.428 | relative viability (Palbociclib + Olaparib; first compound 0.3162 µM): 0.371 | relative viability (Palbociclib + Olaparib; first compound 1 µM): 0.263 | relative viability (Palbociclib + Vorinostat; first compound 0.01 µM): 0.805 | relative viability (Palbociclib + Vorinostat; first compound 0.03162 µM): 0.748 | relative viability (Palbociclib + Vorinostat; first compound 0.1 µM): 0.617 | relative viability (Palbociclib + Vorinostat; first compound 0.3162 µM): 0.529 | relative viability (Palbociclib + Vorinostat; first compound 1 µM): 0.436 | relative viability (Palbociclib + Tozasertib; first compound 0.01 µM): 0.334 | relative viability (Palbociclib + Tozasertib; first compound 0.03162 µM): 0.33 | relative viability (Palbociclib + Tozasertib; first compound 0.1 µM): 0.266 | relative viability (Palbociclib + Tozasertib; first compound 0.3162 µM): 0.251 | relative viability (Palbociclib + Tozasertib; first compound 1 µM): 0.228 | relative viability (Palbociclib + Trametinib; first compound 0.01 µM): 0.516 | relative viability (Palbociclib + Trametinib; first compound 0.03162 µM): 0.439 | relative viability (Palbociclib + Trametinib; first compound 0.1 µM): 0.39 | relative viability (Palbociclib + Trametinib; first compound 0.3162 µM): 0.411 | relative viability (Palbociclib + Trametinib; first compound 1 µM): 0.317

H3255
relative viability (Palbociclib + Olaparib; first compound 0.01 µM): 0.646 | relative viability (Palbociclib + Olaparib; first compound 0.03162 µM): 0.547 | relative viability (Palbociclib + Olaparib; first compound 0.1 µM): 0.458 | relative viability (Palbociclib + Olaparib; first compound 0.3162 µM): 0.493 | relative viability (Palbociclib + Olaparib; first compound 1 µM): 0.373 | relative viability (Palbociclib + Vorinostat; first compound 0.01 µM): 0.907 | relative viability (Palbociclib + Vorinostat; first compound 0.03162 µM): 0.688 | relative viability (Palbociclib + Vorinostat; first compound 0.1 µM): 0.687 | relative viability (Palbociclib + Vorinostat; first compound 0.3162 µM): 0.68 | relative viability (Palbociclib + Vorinostat; first compound 1 µM): 0.549 | relative viability (Palbociclib + Tozasertib; first compound 0.01 µM): 0.702 | relative viability (Palbociclib + Tozasertib; first compound 0.03162 µM): 0.613 | relative viability (Palbociclib + Tozasertib; first compound 0.1 µM): 0.522 | relative viability (Palbociclib + Tozasertib; first compound 0.3162 µM): 0.591 | relative viability (Palbociclib + Tozasertib; first compound 1 µM): 0.309 | relative viability (Palbociclib + Trametinib; first compound 0.01 µM): 0.606 | relative viability (Palbociclib + Trametinib; first compound 0.03162 µM): 0.588 | relative viability (Palbociclib + Trametinib; first compound 0.1 µM): 0.539 | relative viability (Palbociclib + Trametinib; first compound 0.3162 µM): 0.48 | relative viability (Palbociclib + Trametinib; first compound 1 µM): 0.412

NCI-H2085
relative viability (Palbociclib + Olaparib; first compound 0.01 µM): 0.788 | relative viability (Palbociclib + Olaparib; first compound 0.03162 µM): 0.767 | relative viability (Palbociclib + Olaparib; first compound 0.1 µM): 0.712 | relative viability (Palbociclib + Olaparib; first compound 0.3162 µM): 0.584 | relative viability (Palbociclib + Olaparib; first compound 1 µM): 0.488 | relative viability (Palbociclib + Vorinostat; first compound 0.01 µM): 0.816 | relative viability (Palbociclib + Vorinostat; first compound 0.03162 µM): 0.786 | relative viability (Palbociclib + Vorinostat; first compound 0.1 µM): 0.748 | relative viability (Palbociclib + Vorinostat; first compound 0.3162 µM): 0.63 | relative viability (Palbociclib + Vorinostat; first compound 1 µM): 0.383 | relative viability (Palbociclib + Tozasertib; first compound 0.01 µM): 0.84 | relative viability (Palbociclib + Tozasertib; first compound 0.03162 µM): 0.701 | relative viability (Palbociclib + Tozasertib; first compound 0.1 µM): 0.689 | relative viability (Palbociclib + Tozasertib; first compound 0.3162 µM): 0.635 | relative viability (Palbociclib + Tozasertib; first compound 1 µM): 0.523 | relative viability (Palbociclib + Trametinib; first compound 0.01 µM): 0.529 | relative viability (Palbociclib + Trametinib; first compound 0.03162 µM): 0.516 | relative viability (Palbociclib + Trametinib; first compound 0.1 µM): 0.588 | relative viability (Palbociclib + Trametinib; first compound 0.3162 µM): 0.482 | relative viability (Palbociclib + Trametinib; first compound 1 µM): 0.34

— the supplement of paper PMC10307832
